Assay results reported in patent US4103082A, “Aminocyclitol derivatives and process for producing the same” (priority 1975, dated 1978).
In brackets after ≈: the same amount, converted by molar mass.

Assays:
E. coli K-12 = assay: paper disk method, inhibitory zone diameter; format: cell-based; details: Escherichia coli, K12, read-out: inhibitory zone diameter
[1] = system: Staphylococcus aureus 6538P; assay: paper disk method, inhibitory zone diameter; format: cell-based; details: read-out: inhibitory zone diameter
[2] = system: E. coli HL-1629 (Kanamycin-resistant strain); assay: microbe, parasite or virus in culture; format: cell-based; details: Escherichia coli, read-out: inhibitory zone diameter
Klebsiella 6 = assay: paper disk method, inhibitory zone diameter; format: cell-based; details: Klebsiella, 6
Klebsiella 7 = assay: paper disk method, inhibitory zone diameter; format: cell-based; details: Klebsiella, 7
Mycobacterium 607 = assay: paper disk method, inhibitory zone diameter; format: cell-based; details: Mycobacterium, 607, read-out: inhibitory zone diameter
Pseudomonas 1007 = assay: paper disk method, inhibitory zone diameter; format: cell-based; details: Pseudomonas, 1007; 2000 γ/ml; read-out: inhibitory zone diameter
[3] = system: Staphylococcus aureus 209P JC-1; assay: antibacterial activity (Minimum Inhibitory Concentration); format: cell-based; details: Staphylococcus aureus 209P JC-1; read-out: MIC
[4] = system: Staphylococcus aureus Smith S-424; assay: as above; format: cell-based; details: SMITHS424; Staphylococcus aureus Smith S-424; read-out: MIC
[5] = system: Staphylococcus aureus No. 26; assay: as above; format: cell-based; details: Staphylococcus aureus No. 26; read-out: MIC
[6] = system: Staphylococcus aureus C73-4; assay: as above; format: cell-based; details: C734; Staphylococcus aureus C73-4; read-out: MIC
[7] = system: Staphylococcus aureus C73-10; assay: as above; format: cell-based; details: C7310; Staphylococcus aureus C73-10; read-out: MIC
[8] = system: Staphylococcus aureus C73-21; assay: as above; format: cell-based; details: C7321; Staphylococcus aureus C73-21; read-out: MIC
[9] = system: Staphylococcus albus PCI-1200A; assay: as above; format: cell-based; details: PCI1200A; Staphylococcus albus PCI-1200A; read-out: MIC
[10] = system: Bacillus subtilis ATCC 6633; assay: as above; format: cell-based; details: ATCC6633; Bacillus subtilis ATCC 6633; read-out: MIC
[11] = system: Bacillus anthracis No. 119; assay: microbe, parasite or virus in culture; format: cell-based
E. coli C73-1 = assay: antibacterial activity (Minimum Inhibitory Concentration); format: cell-based; details: Escherichia coli, C731; E. coli C73-1; read-out: MIC
E. coli C73-4 = assay: as above; format: cell-based; details: Escherichia coli, C734; E. coli C73-4; read-out: MIC
E. coli C73-12 = assay: as above; format: cell-based; details: Escherichia coli, C7312
[12] = system: Salmonella species C73-30; assay: as above; format: cell-based; details: C7330
[13] = system: Shigella dysenteriae Shigae; assay: microbe, parasite or virus in culture; format: cell-based
Klebsiella pneumoniae = assay: antibacterial activity (Minimum Inhibitory Concentration); format: cell-based; details: read-out: MIC
Proteus morganii Kono = assay: as above; format: cell-based; details: Morganella morganii
Proteus species C73-23 = assay: as above; format: cell-based; details: Proteus species C73-23; read-out: MIC
Proteus species C73-25 = assay: as above; format: cell-based; details: Proteus species C73-25; read-out: MIC
Proteus species C73-33 = assay: as above; format: cell-based; details: Proteus species C73-33; read-out: MIC
Proteus species C73-34 = assay: as above; format: cell-based; details: Proteus species C73-34; read-out: MIC
[14] = system: Enterococcus species C73-33; assay: as above; format: cell-based; details: C7333; Enterococcus species C73-33; read-out: MIC
[15] = system: Enterococcus species C73-17; assay: as above; format: cell-based; details: C7317; Enterococcus species C73-17; read-out: MIC
[16] = system: Vibrio parahaemolyticus K-3; assay: as above; format: cell-based; details: K3; Vibrio parahaemolyticus K-3; read-out: MIC
[17] = system: Vibrio parahaemolyticus K-5; assay: as above; format: cell-based; details: K5; Vibrio parahaemolyticus K-5; read-out: MIC
[18] = system: Vibrio parahaemolyticus K-7; assay: as above; format: cell-based; details: K7; Vibrio parahaemolyticus K-7; read-out: MIC
microorganisms indicated = assay: antimicrobial activities, paper disk method (general statement); format: cell-based; details: Tables 1 to 4
Description: The inhibitory activities were determined at various concentrations of the compounds using the paper disk method against the microorganisms indicated and the numerical values show the inhibitory zone diameter in terms of mm.

male ICR mice = assay: acute toxicity; details: intravenous administration, 200 mg/kg
[19] = 2000 γ/ml, read-out: inhibitory zone diameter

## NC[C@H]1O[C@H](O[C@H]2[C@H](O)C[C@H](N)C[C@@H]2N)[C@H](N)[C@@H](O)[C@@H]1O [6-Deoxyneamine, 6-deoxyneamine]
E. coli K-12; 7.8 γ/ml
  zone of inhibition at 7.8 µg/mL: 0 mm
E. coli K-12; 15.6 γ/ml
  zone of inhibition at 15.6 µg/mL: 11.2 mm
E. coli K-12; 31.2 γ/ml
  zone of inhibition at 31.2 µg/mL: 12.9 mm
E. coli K-12; 62.5 γ/ml
  zone of inhibition at 62.5 µg/mL: 16 mm
E. coli K-12; 125 γ/ml
  zone of inhibition at 125 µg/mL: 18.2 mm
E. coli K-12; 250 γ/ml
  zone of inhibition at 250 µg/mL: 20.3 mm
E. coli K-12; 500 γ/ml
  zone of inhibition at 500 µg/mL: 21.9 mm
E. coli K-12; 1000 γ/ml
  zone of inhibition at 1000 µg/mL: 25 mm
E. coli K-12; 2000 γ/ml
  zone of inhibition at 2000 µg/mL: 26.7 mm
[1]; 7.8 γ/ml
  zone of inhibition at 7.8 µg/mL: 0 mm
[1]; 15.6 γ/ml
  zone of inhibition at 15.6 µg/mL: 0 mm
[1]; 31.2 γ/ml
  zone of inhibition at 31.2 µg/mL: 10 mm
[1]; 62.5 γ/ml
  zone of inhibition at 62.5 µg/mL: 12 mm
[1]; 125 γ/ml
  zone of inhibition at 125 µg/mL: 15.7 mm
[1]; 250 γ/ml
  zone of inhibition at 250 µg/mL: 18.1 mm
[1]; 500 γ/ml
  zone of inhibition at 500 µg/mL: 20 mm
[1]; 1000 γ/ml
  zone of inhibition at 1000 µg/mL: 22.2 mm
[1]; 2000 γ/ml
  zone of inhibition at 2000 µg/mL: 24.2 mm
[2]
  zone of inhibition at 500 µg/mL: 0 mm
  zone of inhibition at 1000 µg/mL: 12.5 mm
  zone of inhibition at 2000 µg/mL: 18 mm
Klebsiella 6; 250 γ/ml
  zone of inhibition at 250 µg/mL: 0 mm
Klebsiella 6; 500 γ/ml
  zone of inhibition at 500 µg/mL: 11.1 mm
Klebsiella 6; 1000 γ/ml
  zone of inhibition at 1000 µg/mL: 14.1 mm
Klebsiella 6; [19]
  zone of inhibition at 2000 µg/mL: 16.4 mm
Klebsiella 7; 250 γ/ml
  zone of inhibition at 250 µg/mL: 0 mm
Klebsiella 7; 500 γ/ml
  zone of inhibition at 500 µg/mL: 11.2 mm
Klebsiella 7; 1000 γ/ml
  zone of inhibition at 1000 µg/mL: 15.6 mm
Klebsiella 7; [19]
  zone of inhibition at 2000 µg/mL: 17.5 mm
Mycobacterium 607; 62.5 γ/ml
  zone of inhibition at 62.5 µg/mL: 0 mm
Mycobacterium 607; 125 γ/ml
  zone of inhibition at 125 µg/mL: 11 mm
Mycobacterium 607; 250 γ/ml
  zone of inhibition at 250 µg/mL: 16.2 mm
Mycobacterium 607; 500 γ/ml
  zone of inhibition at 500 µg/mL: 21.7 mm
Mycobacterium 607; 1000 γ/ml
  zone of inhibition at 1000 µg/mL: 28.3 mm
Mycobacterium 607; 2000 γ/ml
  zone of inhibition at 2000 µg/mL: 33.6 mm
Pseudomonas 1007
  zone of inhibition at 2000 µg/mL: 0 mm
[3]
  MIC: 1.56 µg/mL (≈ 5.09 µM)
[4]
  MIC: 3.13 µg/mL (≈ 10.2 µM)
[5]
  MIC: 6.25 µg/mL (≈ 20.4 µM)
[6]
  MIC: 6.25 µg/mL (≈ 20.4 µM)
[7]
  MIC: 6.25 µg/mL (≈ 20.4 µM)
[8]
  MIC: 1.56 µg/mL (≈ 5.09 µM)
[9]
  MIC: 3.13 µg/mL (≈ 10.2 µM)
[10]
  MIC: 0.78 µg/mL (≈ 2.55 µM)
[11]
  MIC: 12.5 µg/mL (≈ 40.8 µM)
E. coli C73-1
  MIC: 25 µg/mL (≈ 81.6 µM)
E. coli C73-4
  MIC: 25 µg/mL (≈ 81.6 µM)
E. coli C73-12
  MIC: 12.5 µg/mL (≈ 40.8 µM)
[12]
  MIC: 50 µg/mL (≈ 163 µM)
[13]
  MIC: 12.5 µg/mL (≈ 40.8 µM)
Klebsiella pneumoniae
  MIC: 25 µg/mL (≈ 81.6 µM)
Proteus morganii Kono
  MIC: 12.5 µg/mL (≈ 40.8 µM)
Proteus species C73-23
  MIC: 25 µg/mL (≈ 81.6 µM)
Proteus species C73-25
  MIC: 6.25 µg/mL (≈ 20.4 µM)
Proteus species C73-33
  MIC: 100 µg/mL (≈ 326 µM)
Proteus species C73-34
  MIC: 25 µg/mL (≈ 81.6 µM)
[14]
  MIC: 25 µg/mL (≈ 81.6 µM)
[15]
  MIC: 50 µg/mL (≈ 163 µM)
[16]
  MIC: 1.56 µg/mL (≈ 5.09 µM)
[17]
  MIC: 25 µg/mL (≈ 81.6 µM)
[18]
  MIC: 25 µg/mL (≈ 81.6 µM)
Microorganisms indicated
  antimicrobial activities relative to neamine: superior to those of the parent compound neamine
Male ICR mice
  acute toxicity, survival: all male ICR mice were survived
